Measurements published in publication PMC8459971, “Evaluation of the hepatotoxicity of the novel GPR40 (FFAR1) agonist CPL207280 in the rat and monkey” (PLoS ONE, 2021).
“And” between values parts separate entries of the source, which are not always exact repeats. Equal entries are not always repeated. Where two headings read alike, the source gives them in different places.

Assays:
[1] = Stability in microsomes, rat; format: in vitro ADME; conditions: for average DEG [%]: rat microsomes, with cofactors
Description: (§1) The final incubation volume was 500 μL. Two control compounds (verapamil and donepezil) were included for each microsomal species, along with the appropriate vehicle control. The reactions were terminated by transferring 50 μL of incubate to 100 μL methanol containing an internal standard (metoprolol) at appropriate time points (0, 10, 20, 40, 60, and 120 min for the test compound and 0, 5, 10, 20, 40, and 60 min for the control compounds). The termination plates were centrifuged at 4000 x g at 4°C for 30 min to precipitate the protein. The supernatants were then collected for analysis, and LC-MS/MS was used for detection purposes. The system consisted of an Acquity™ Binary Solvent Manager, Acquity™ 4-position heated column manager, 2777 Ultra High Pressure Autosampler, and a Xevo-TQ MS triple quadrupole mass spectrometer (Waters Ltd., Herts, UK). This process was carried out twice.

[2] = molecular target: MRP2 (Homo sapiens, UniProt Q92887); test: Vesicular transport inhibition assay, MRP2; conditions: for Accumulation (counts per minute; CPM) with AMP / Accumulation (counts per minute; CPM) with ATP: MRP2;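 also: membrane vesicles with probe substrate plus 2 mM glutathione, incubated with 4 mM ATP or AMP (AMP as background control), vesicle-retained substrate measured by liquid scintillation counting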;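 as to Accumulation (counts per minute; CPM) with AMP: ATP 4 mM vs AMP background separates transporter uptake from diffusion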;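 as to Accumulation (counts per minute; CPM) with ATP: ATP 4 mM vs AMP background separates transporter uptake from diffusion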
Description: In the vesicular transport inhibition assay (for BSEP, MRP) compounds were incubated with membrane vesicle preparations and the probe substrate. Incubations were carried out in the presence of 4 mM ATP or AMP to distinguish between transporter-mediated uptake and passive diffusion into the vesicles. For MRP2 and MRP3, reactions were carried out in the presence of 2 mM glutathione. Compounds were added to the reaction mixture in 0.75 μL of solvent (1% of the final incubation volume). […] Reactions were initiated by the addition of 25 μL of 12 mM MgATP (or 12 mM AMP in assay buffer as a background control) and preincubated separately. Reactions were quenched by the addition of 200 μL of ice-cold washing buffer and immediate filtration via glass fiber filters mounted on a 96-well plate (filter plate). The filters were washed (5 × 200 μL of ice-cold washing buffer), dried, and the amount of substrate inside the filtered vesicles was determined by liquid scintillation counting.

[3] = molecular target: T1, OATP1B3 (Homo sapiens, UniProt Q9NPD5); test: Uptake transporter inhibition assay, OATP1B3
T1 sequence (Q9NPD5 1-702): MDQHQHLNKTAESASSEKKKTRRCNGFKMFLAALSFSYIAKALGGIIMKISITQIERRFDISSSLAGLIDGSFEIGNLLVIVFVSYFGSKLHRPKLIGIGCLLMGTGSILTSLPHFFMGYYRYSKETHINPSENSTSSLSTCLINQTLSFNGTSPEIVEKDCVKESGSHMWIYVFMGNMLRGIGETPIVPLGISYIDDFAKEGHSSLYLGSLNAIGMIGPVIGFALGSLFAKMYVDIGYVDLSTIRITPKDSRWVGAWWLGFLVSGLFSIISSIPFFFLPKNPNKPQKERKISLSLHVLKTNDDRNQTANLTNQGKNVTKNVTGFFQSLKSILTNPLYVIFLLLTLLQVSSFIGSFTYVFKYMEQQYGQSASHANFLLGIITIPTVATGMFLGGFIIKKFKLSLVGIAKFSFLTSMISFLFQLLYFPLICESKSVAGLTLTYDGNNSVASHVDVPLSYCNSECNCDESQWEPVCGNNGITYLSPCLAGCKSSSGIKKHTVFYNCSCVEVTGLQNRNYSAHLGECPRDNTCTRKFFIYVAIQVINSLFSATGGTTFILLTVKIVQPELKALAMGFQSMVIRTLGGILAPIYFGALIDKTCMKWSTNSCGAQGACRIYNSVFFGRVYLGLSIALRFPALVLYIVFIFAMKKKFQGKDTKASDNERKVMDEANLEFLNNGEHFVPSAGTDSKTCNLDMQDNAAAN
Description: For the uptake transporter inhibition assay, cells were washed twice with 100 μL of the appropriate buffer (HK, pH 7.4) for OATP1B1, followed by HBSS (pH 7.4) for (NTCP, OAT1, OAT2v1, OATP1A2, and OATP1B3). Uptake experiments were carried out at 37 ± 1°C in 50 μL of the respective buffer containing the probe substrate and the compound or solvent. […] After the experiment, cells were washed twice with 100 μL of cold appropriate buffer and lysed with 50 μL of 0.1 M NaOH. Radiolabeled probe substrate transport was determined by measuring an aliquot (35 μL) from each well for liquid scintillation counting.

[4] = Viability assay, HepG2 cells, MTT test, 48 h; format: cell-based, human; conditions: human, HepG2 cells, sheet Fig1 panel B (HepG2), 48 h, replicates, read-out: viability, normalized to DMSO-treated controls
Description: To study the viability of the liver cells, 5 × 10^3 HepG2 (ATCC®) or human primary cells (ThermoFisher Scientific, USA) were seeded in 100 μL of DMEM media (Gibco; Thermo Fisher Scientific, USA) supplemented with fetal bovine serum (FBS)- in a 96-well plate. […] The experiments were performed in triplicates.

[5] = Stability in microsomes, human; format: in vitro ADME; conditions: for average DEG [%]: human microsomes, with cofactors
Description: as §1

[6] = Single-dose pharmacokinetics in rats (p.o. and i.v.); format: in vivo, rat; parameters: plasma conc: unit not given here; conditions: for plasma conc: single animals; for AUC: read-out: AUC
[7] = Rat (Sprague Dawley) microsomes, mean n = 2
[8] = rat, plasma, iv, 3 mg/kg, rats, 3 mg/kg i.v.
[9] = rat, plasma, po, 3 mg/kg, rats, 3 mg/kg p.o.

MRP2, sequence (Q92887 whole entry, the tested form may be a part): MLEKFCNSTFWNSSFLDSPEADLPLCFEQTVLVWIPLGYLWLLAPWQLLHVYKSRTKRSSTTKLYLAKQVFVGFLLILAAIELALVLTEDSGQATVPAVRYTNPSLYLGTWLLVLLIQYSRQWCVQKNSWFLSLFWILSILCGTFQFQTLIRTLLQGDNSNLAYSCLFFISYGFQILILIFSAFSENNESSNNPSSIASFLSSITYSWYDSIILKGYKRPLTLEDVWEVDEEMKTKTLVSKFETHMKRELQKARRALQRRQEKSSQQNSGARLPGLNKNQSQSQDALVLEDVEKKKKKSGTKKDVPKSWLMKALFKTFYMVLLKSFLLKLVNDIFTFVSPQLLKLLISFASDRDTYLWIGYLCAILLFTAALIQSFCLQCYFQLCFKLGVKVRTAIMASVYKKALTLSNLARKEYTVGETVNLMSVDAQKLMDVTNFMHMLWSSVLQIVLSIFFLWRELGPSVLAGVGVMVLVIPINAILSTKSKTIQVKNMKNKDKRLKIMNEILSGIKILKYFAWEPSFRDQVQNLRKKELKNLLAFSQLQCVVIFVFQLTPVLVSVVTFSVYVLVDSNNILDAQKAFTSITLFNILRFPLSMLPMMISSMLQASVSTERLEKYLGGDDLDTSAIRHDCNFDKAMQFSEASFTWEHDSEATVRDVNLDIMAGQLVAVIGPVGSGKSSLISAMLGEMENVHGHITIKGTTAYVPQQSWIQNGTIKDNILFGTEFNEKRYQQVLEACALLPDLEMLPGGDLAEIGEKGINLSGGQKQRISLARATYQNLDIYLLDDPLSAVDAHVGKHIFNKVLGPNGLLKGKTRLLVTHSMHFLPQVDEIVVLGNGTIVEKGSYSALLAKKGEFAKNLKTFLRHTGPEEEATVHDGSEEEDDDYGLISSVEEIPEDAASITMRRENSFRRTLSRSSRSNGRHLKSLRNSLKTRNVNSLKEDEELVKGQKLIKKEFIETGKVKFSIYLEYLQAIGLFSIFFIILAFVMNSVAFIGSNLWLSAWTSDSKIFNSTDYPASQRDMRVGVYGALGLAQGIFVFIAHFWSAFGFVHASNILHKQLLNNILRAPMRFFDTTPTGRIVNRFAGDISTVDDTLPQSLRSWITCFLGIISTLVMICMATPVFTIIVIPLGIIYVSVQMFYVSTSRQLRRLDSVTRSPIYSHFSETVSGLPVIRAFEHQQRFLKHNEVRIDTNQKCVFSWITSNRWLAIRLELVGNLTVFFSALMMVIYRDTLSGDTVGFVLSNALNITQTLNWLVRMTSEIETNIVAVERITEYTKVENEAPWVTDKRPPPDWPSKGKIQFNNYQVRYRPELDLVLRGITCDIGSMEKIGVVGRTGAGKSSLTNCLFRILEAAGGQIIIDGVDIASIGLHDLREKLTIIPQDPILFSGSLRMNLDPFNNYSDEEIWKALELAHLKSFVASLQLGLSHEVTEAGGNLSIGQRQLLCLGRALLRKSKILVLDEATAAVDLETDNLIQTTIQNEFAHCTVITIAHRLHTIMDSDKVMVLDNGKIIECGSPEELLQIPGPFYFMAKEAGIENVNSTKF

With `Cc1cc(OCCCS(C)(=O)=O)cc(C)c1-c1cccc(COc2ccc3c(c2)OC[C@H]3CC(=O)O)c1` [TAK-875, fasiglifam, reference compound] as the compound, how does the half-life at 3 μM [1, 7] read?
The half-life at 3 μM was 1.98 h.

And the microsomal CLint at 3 μM [1, 7]?
Its microsomal CLint at 3 μM is 11.6 µL/min/mg.

And the “average DEG [%]” value ([1]; 0 min)?
The value was 100.0%.

And the “average DEG [%]” value ([1]; 20 min)?
Its value is 81.3%.

And the “average DEG [%]” value ([1]; 40 min)?
The value was 79.5%.

What about the “average DEG [%]” value ([1]; 60 min) of the same compound?
The value was 68.4%.

What about the IC50 [2] of the same compound?
The IC50 was 48.1 µM.

And the “Accumulation (counts per minute; CPM) with AMP” value ([2]; conc 0.07 µM)?
Its value is 234 CPM and 221 CPM.

What about the “Accumulation (counts per minute; CPM) with ATP” value ([2]; conc 0.07 µM) of the same compound?
Its value is 3160 CPM and 3355 CPM.

And the “Accumulation (counts per minute; CPM) with AMP” value ([2]; conc 0.21 µM)?
Its value is 218 CPM and 217 CPM.

And the “Accumulation (counts per minute; CPM) with ATP” value ([2]; conc 0.21 µM)?
Its value is 3318 CPM and 3579 CPM.

And the “Accumulation (counts per minute; CPM) with AMP” value ([2]; conc 0.62 µM)?
The value was 249 CPM and 186 CPM.

What about the “Accumulation (counts per minute; CPM) with ATP” value ([2]; conc 0.62 µM) of the same compound?
Its value is 3453 CPM and 3166 CPM.

And the “Accumulation (counts per minute; CPM) with AMP” value ([2]; conc 16.67 µM)?
Its value is 211 CPM and 200 CPM.

What about the “Accumulation (counts per minute; CPM) with ATP” value ([2]; conc 16.67 µM) of the same compound?
The value was 2989 CPM and 3430 CPM.

And the “Accumulation (counts per minute; CPM) with AMP” value ([2]; conc 50.00 µM)?
The value was 220 CPM and 191 CPM.

What about the “Accumulation (counts per minute; CPM) with ATP” value ([2]; conc 50.00 µM) of the same compound?
The value was 1700 CPM and 1670 CPM.

What about the IC50 [3] of the same compound?
The IC50 was 3.44 µM.

And the viability at 48 h, 25 µM ([4]; 25 uM)?
The viability at 48 h, 25 µM was 67.5%.

And the viability at 48 h, 50 µM ([4]; 50 uM)?
The viability at 48 h, 50 µM was 61.2%.

What about the half-life at 3 μM ([5]; Human microsomes, mean n = 2) of the same compound?
The half-life at 3 μM was 3.5 h.

And the microsomal CLint at 3 μM ([5]; Human microsomes, mean n = 2)?
The microsomal CLint at 3 μM was 6.6 µL/min/mg.

What about the “stability classification in microsomes” value ([5]; based on the Clint values from different species, reference ranges by Cyprotex (human range given in legend)) of the same compound?
The value was “stable compound”.

And the “average DEG [%]” value ([5]; 0 min)?
The value was 100.0%.

What about the “average DEG [%]” value ([5]; 20 min) of the same compound?
Its value is 110.6%.

And the “average DEG [%]” value ([5]; 40 min)?
Its value is 92.5%.

What about the “average DEG [%]” value ([5]; 60 min) of the same compound?
Its value is 85.1%.

What about the plasma conc ([6]; rat, 3 mg/kg i.v., 0.08 h, 3 mg/kg) of the same compound?
Its plasma conc is 14090 and 15902 and 15227 and 5072.

What about the plasma conc ([6]; rat, 3 mg/kg i.v., 0.5 h, 3 mg/kg) of the same compound?
The plasma conc was 14558 and 12270 and 9258 and 3810.

What about the plasma conc ([6]; rat, 3 mg/kg i.v., 1 h, 3 mg/kg) of the same compound?
The plasma conc was 8089 and 7692 and 11373 and 4600.

And the plasma conc ([6]; rat, 3 mg/kg i.v., 2 h, 3 mg/kg)?
The plasma conc was 5223 and 7517 and 9423.

What about the plasma conc ([6]; rat, 3 mg/kg i.v., 4 h, 3 mg/kg) of the same compound?
Its plasma conc is 3618 and 4301 and 3765.

What about the plasma conc ([6]; rat, 3 mg/kg i.v., 7 h, 3 mg/kg) of the same compound?
The plasma conc was 1974 and 2103 and 1928 and 4512.

And the plasma conc ([6]; rat, 3 mg/kg i.v., 12 h, 3 mg/kg)?
The plasma conc was 1056 and 769 and 1435.

And the plasma conc ([6]; rat, 3 mg/kg p.o., 0.5 h, 3 mg/kg)?
The plasma conc was 1176 and 692 and 854 and 1110.

And the plasma conc ([6]; rat, 3 mg/kg p.o., 1 h, 3 mg/kg)?
The plasma conc was 1699 and 1467 and 1460 and 1557.

What about the plasma conc ([6]; rat, 3 mg/kg p.o., 2 h, 3 mg/kg) of the same compound?
The plasma conc was 1890 and 1694 and 1808 and 1814.

What about the plasma conc ([6]; rat, 3 mg/kg p.o., 4 h, 3 mg/kg) of the same compound?
The plasma conc was 1443 and 1502 and 1610 and 1643.

What about the plasma conc ([6]; rat, 3 mg/kg p.o., 8 h, 3 mg/kg) of the same compound?
The plasma conc was 681 and 636 and 614 and 960 and 463.

And the plasma conc ([6]; rat, 3 mg/kg p.o., 24 h)?
Its plasma conc is 0.

And the Tmax [6, 8]?
The Tmax was 0.083 h.

What about the Cmax ([6]; rat, plasma, iv, 3 mg/kg, rats, 3 mg/kg i.v., n = 5, read-out: Cmax) of the same compound?
Its Cmax is 15100 ± 916 ng/mL.

And the AUC [6, 8]?
The AUC was 45200 ± 4680 ng·h/mL.

What about the bioavailability ([6]; rat, plasma, oral, rats, 3 mg/kg p.o. vs i.v., read-out: F (bioavailability)) of the same compound?
Its bioavailability is 38%.

What about the Tmax [6, 9] of the same compound?
The Tmax was 2 h.

What about the AUC [6, 9] of the same compound?
The AUC was 15800 ± 1510 ng·h/mL.

And the Vd ([6]; rat, plasma, rats, 3 mg/kg)?
Its Vd is 0.25 ± 0.01 L/kg.

What about the k el ([6]; rat, plasma, rats, 3 mg/kg) of the same compound?
Its k el is 6.67e-05 s⁻¹.

What about the “greater distribution volume (Vd) than CPL207280” value ([6]; rats, 3 mg/kg) of the same compound?
Its value is 20%.
